Experiments:
HT-1080 cells [1] = assay: Effect of Fer-1 on the lethality of various compounds in HT-1080 cells; format: cell-based, human; settings: resynthesized Fer-1 (0.5 μM)
Protocol: The comparative analysis of the lethal effects of various molecules was conducted as above for the inhibitors experiment with the following modifications. All lethal molecules were tested in a ten point, two-fold dilution series. Inhibitors were made in media at 1× final concentration. The growth media was removed from the plates, and 36 μL media+inhibitor (or DMSO) was added back to the plate+4 μL from the 10× lethal stock plate. Cell viability and modulatory effects (Me) were computed as above, to obtain the maximum deviation from BExp produced by each modulator across the different lethal small molecule concentrations.

ERK phosphorylation = ERK phosphorylation Western blot in HT-1080 cells; format: cell-based, human
Protocol: Cells were trypsinized, pelleted, and washed once in PBS. Cells were lysed for 20 minutes in buffer containing: 50 mM HEPES pH 7.4, 40 mM NaCl, 2 mM EDTA, 0.5% Triton X-100, 1.5 mM sodium orthovanadate, 50 mM NaF, 10 mM sodium pyrophosphate, 10 mM sodium ß-glycerophosphate, and protease inhibitor tablet (Roche, Nutley, N.J.). Unlysed cells and debris were pelleted for 10 minutes at 10,000 rpm in a benchtop microcentrifuge at 4° C., and the supernatant was removed and mixed with 5×SDS loading buffer. Samples were separated by SDS-polyacrylamide gel electrophoresis. Western transfer was performed using the iBlot system (Invitrogen). Membrane was blocked for 1 hour in Licor Odyssey Blocking Buffer (LI-COR) and incubated in primary antibody overnight at 4° C. Following three 5-minute washes in Tris-buffered saline (pH 7.4) with 1% Tween-20 (TBS-T), membrane was incubated with secondary antibodies for 45 minutes in the dark. The membrane was washed again in TBST for three 5-minute washes with protection from light and scanned using the Odyssey Imaging System (LI-COR). Antibodies used were as follows: rabbit anti-phospho p42/44 MAPK (Cell Signaling Technology, #9101) and rabbit anti-p42/44 MAPK (Cell Signaling Technology, #9102). The secondary antibody was IR dye 800CW goat anti-rabbit IgG (LI-COR).

HT-1080 cells [2] = assay: Acridine orange relocalization (lysosomal membrane permeabilization) in HT-1080 cells; format: cell-based, human; settings: acridine orange re-localization
Protocol: 200,000 HT-1080 cells were seeded into 6-well dishes (Corning). The next day, cells were incubated with 25 ng/mL of AO for 15 minutes, then medium was removed and cells were incubated in growth medium for 15 minutes. […] Relocalization of AO from lysosomes (discrete red puncta) to the cytosol (diffuse green color) was determined using an EVOS fl digital inverted fluorescent microscope (Advanced Microscopy Group) equipped with GFP (ex/em 470/525) and RFP (ex/em 531/593) light cubes.

[3] = system: rat corticostriatal brain slices, medium spiny neurons; assay: Brain slice assay for HD (httN90Q73-transfected corticostriatal slices); format: cell-based; settings: for number of healthy medium spiny neurons (MSNs): 10 nM, 100 nM and 1 μM, four days
Protocol: 250 μm corticostriatal brain slices were prepared from postnatal day 10 CD Sprague-Dawley rat pups (Charles River) as previously described (Hoffstrom et al., 2010). Brain slice explants were placed in interface culture in 6-well plates using culture medium containing 15% heat-inactivated horse serum, 10 mM KCl, 10 mM HEPES, 100 U/ml penicillin/streptomycin, 1 mM MEM sodium pyruvate, and 1 mM L-glutamine in Neurobasal A (Invitrogen) and maintained in humidified incubators under 5% CO2 at 32 deg. C. A custom-modified biolistic device (Helios Gene Gun; Bio-Rad) was used to transfect the brain slices with a human htt exon-1 expression construct containing a 73 CAG repeat (“HttN90Q73”) in the gWiz backbone (Genlantis) together with a YFP expression construct to visualize transfected neurons. Control brain slices were transfected with gWiz blank vector and YFP at the equivalent DNA amounts. After 4 days of incubation, MSNs were identified by their location within the striatum and by their characteristic dendritic morphology and scored as healthy if expressing bright and continuous YFP labeling throughout, normal-sized cell bodies, and >2 primary dendrites >2 cell bodies long, as previously described^21. Data were expressed as mean numbers of healthy MSNs per striatal region in each brain slice, with statistical significance tested by ANOVA followed by Dunnett's post hoc comparison test at the 0.05 confidence level. […]
Fer-1 attenuates lipid peroxidation and ferroptosis in cancer cells treated with small molecules that block cystine import or glutathione production, as well as cell death in rat organotypic hippocampal brain slices treated with toxic concentrations of glutamate, which also blocks cystine import (Dixon, et al., 2012). […] Four days later, the number of healthy medium spiny neurons (MSNs) was quantified, as previously described (Varma, et al., 2011, Hoffstrom, et al., 2010).

mice, LPS-induced shock = assay: LPS-induced lethal shock; format: in vivo, mouse; settings: Fer-1 5 mg/kg i.p. 30 min before LPS
Protocol: Mice were injected intraperitoneally (i.p.) with 15 mg/kg Escherichia coli O111:B4 LPS (Sigma-Aldrich). Mice were pretreated by an i.p. injection of 5 mg/kg ethyl 3-amino-4-(cyclohexylamino)benzoate (Fer-1; Matrix Scientific), 10 mg/kg [5-((7-Cl-1H-indol-3-yl)methyl)-3-methylimidazolidine2,4-dione] (Nec-1s; synthesized in house), a combination of Fer-1 and Nec-1s, or vehicle (1% DMSO in PBS) 30 min before the LPS challenge. Rectal body temperature and survival rates were monitored daily up to 96 h. Experiments were approved by the animal ethics committee of Ghent University.

Compound | specificity of death inhibition among lethal compounds (HT-1080 cells [1]) | ERK phosphorylation (ERK phosphorylation) | lysosomal membrane destruction in response to H2O2 (HT-1080 cells [2]) | number of healthy medium spiny neurons (MSNs) [3] | number of healthy MSNs versus controls ([3]; 1 μM) | temperature drop and survival after LPS (mice, LPS-induced shock)
CCOC(=O)c1ccc(NC2CCCCC2)c(N)c1 [SRS8-28 (Fer-1), ethyl 3-amino-4-(cyclohexylamino)benzoate] | specifically inhibited RSL-induced death, but not cell death induced by other oxidative lethal compounds and apoptosis-inducing agents | did not inhibit ERK phosphorylation | did not prevent | significant increase in the number of healthy MSNs | statistically indistinguishable from both the YFP (no htt) control and the control inhibitor combination | no difference compared with vehicle-treated mice was evident
CCOC(=O)c1ccc(NC2CCCCC2)c(NCc2ccccc2)c1 [SRS11-92, ethyl 3-(benzylamino)-4-(cyclohexylamino)benzoate] | – | – | – | significant increase in the number of healthy MSNs | – | –
